Laboratory results: patent US4482559A, “4-Phenyl-4,5,6,7-tetrahydro-thieno [2,3-c]pyridines, compositions and use” (Boehringer Ingelheim KG, priority 1982, dated 1984)
Read-outs that look alike come from different tables or passages of the source.

Experiments:
[1] = LD50 in the mouse by oral route; conditions: in vivo
[2] = test system: hypothermic effect caused by reserpine; assay: reserpine antagonism (reversal of the hypothermic effect caused by reserpine) in mice; format: in vivo; conditions: Mus musculus, oral, reserpine 2 mg/kg i.p. 17 hours before
Protocol: The test used for determining antidepressant properties was reserpine antagonism, namely the reversal of the hypothermic effect caused by reserpine. This test was carried out on mice, using five animals per dose. 17 hours after the intraperitoneal administration of 2 mg/kg of reserpine, the peripheral body temperature was measured at an ambient temperature of 19° C. Then, the test compound was administered by the oral route, and the body temperature was measured after 1, 3, 5 and 7 hours had elapsed. A median effective dose (ED50) was determined for each period of measurement. This is the dose at which the body temperature of the animals treated with reserpine is brought closer to the normal temperature of the untreated control animals by 50%.

[3] = 1 hour, read-out: Reserpine antagonism, median effective dose (ED50) after 1 hr
[4] = 3 hours, read-out: Reserpine antagonism, median effective dose (ED50) after 3 hrs
[5] = 5 hours, read-out: Reserpine antagonism, median effective dose (ED50) after 5 hrs
[6] = 7 hours, read-out: Reserpine antagonism, median effective dose (ED50) after 7 hrs

| SMILES | LD50 [1] | ED50 [2, 3] | ED50 [2, 4] | ED50 [2, 5] | ED50 [2, 6] |
| --- | --- | --- | --- | --- | --- |
| CN1Cc2sc(CN3CCOCC3)cc2C(c2ccc(Br)cc2)C1 (stereo not drawn) [2-(Morpholino-methyl)-4-(p-bromo-phenyl)-6-methyl-4,5,6,7-tetrahydro-thieno[2,3-c]pyridine] | > 640 mg/kg | 22 mg/kg | 1.7 mg/kg | 1.7 mg/kg | 10 mg/kg |
| CN1Cc2sc(CN3CCOCC3)cc2C(c2ccc(Cl)cc2)C1 (stereo not drawn) [2-(Morpholino-methyl)-4-(p-chloro-phenyl)-6-methyl-4,5,6,7-tetrahydro-thieno[2,3-c]pyridine] | > 640 mg/kg | > 40 mg/kg | 2.6 mg/kg | 12 mg/kg | 2.5 mg/kg |
| Cc1ccc(C2CN(C)Cc3sc(CO)cc32)cc1 (stereo not drawn) [2-(Hydroxy-methyl)-6-methyl-4-p-tolyl-4,5,6,7-tetrahydrothieno[2,3-c]pyridine] | ~740 mg/kg | 2.5 mg/kg | 0.24 mg/kg | 2.5 mg/kg | > 10 mg/kg |
